Test results taken from paper PMC10673995, “Discovery of a novel cardiac-specific myosin modulator using artificial intelligence-based virtual screening” (Nature Communications, 2023).
“And” between values parts separate entries of the source, which are not always exact repeats. Identical values can stand only once. Each block holds one compound with its values, some of them ahead of it.

Molecular target: bovine cardiac myofibrils (Bos taurus, UniProt Q9BE39)
Test: mant-ATP chase single nucleotide turnover, cardiac myofibrils;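 note: bovine cardiac myofibrils at 1 mg/mL in PIPES buffer, 20 µM mant-ATP aged 1 min then chased with 20 mM ATP, fluorescence (ex 360, em 450 nm) read every second for 15 min at 25 °C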
Conditions: for Bar graph: Figure 3c
[1] = 2 μmol L^−1 Mavacamten or 20 μmol L^−1 F10, control 0.0719 ± 0.0193
[2] = Cardiac myofibrils, individual replicates

Sequence of bovine cardiac myofibrils (Q9BE39 whole entry): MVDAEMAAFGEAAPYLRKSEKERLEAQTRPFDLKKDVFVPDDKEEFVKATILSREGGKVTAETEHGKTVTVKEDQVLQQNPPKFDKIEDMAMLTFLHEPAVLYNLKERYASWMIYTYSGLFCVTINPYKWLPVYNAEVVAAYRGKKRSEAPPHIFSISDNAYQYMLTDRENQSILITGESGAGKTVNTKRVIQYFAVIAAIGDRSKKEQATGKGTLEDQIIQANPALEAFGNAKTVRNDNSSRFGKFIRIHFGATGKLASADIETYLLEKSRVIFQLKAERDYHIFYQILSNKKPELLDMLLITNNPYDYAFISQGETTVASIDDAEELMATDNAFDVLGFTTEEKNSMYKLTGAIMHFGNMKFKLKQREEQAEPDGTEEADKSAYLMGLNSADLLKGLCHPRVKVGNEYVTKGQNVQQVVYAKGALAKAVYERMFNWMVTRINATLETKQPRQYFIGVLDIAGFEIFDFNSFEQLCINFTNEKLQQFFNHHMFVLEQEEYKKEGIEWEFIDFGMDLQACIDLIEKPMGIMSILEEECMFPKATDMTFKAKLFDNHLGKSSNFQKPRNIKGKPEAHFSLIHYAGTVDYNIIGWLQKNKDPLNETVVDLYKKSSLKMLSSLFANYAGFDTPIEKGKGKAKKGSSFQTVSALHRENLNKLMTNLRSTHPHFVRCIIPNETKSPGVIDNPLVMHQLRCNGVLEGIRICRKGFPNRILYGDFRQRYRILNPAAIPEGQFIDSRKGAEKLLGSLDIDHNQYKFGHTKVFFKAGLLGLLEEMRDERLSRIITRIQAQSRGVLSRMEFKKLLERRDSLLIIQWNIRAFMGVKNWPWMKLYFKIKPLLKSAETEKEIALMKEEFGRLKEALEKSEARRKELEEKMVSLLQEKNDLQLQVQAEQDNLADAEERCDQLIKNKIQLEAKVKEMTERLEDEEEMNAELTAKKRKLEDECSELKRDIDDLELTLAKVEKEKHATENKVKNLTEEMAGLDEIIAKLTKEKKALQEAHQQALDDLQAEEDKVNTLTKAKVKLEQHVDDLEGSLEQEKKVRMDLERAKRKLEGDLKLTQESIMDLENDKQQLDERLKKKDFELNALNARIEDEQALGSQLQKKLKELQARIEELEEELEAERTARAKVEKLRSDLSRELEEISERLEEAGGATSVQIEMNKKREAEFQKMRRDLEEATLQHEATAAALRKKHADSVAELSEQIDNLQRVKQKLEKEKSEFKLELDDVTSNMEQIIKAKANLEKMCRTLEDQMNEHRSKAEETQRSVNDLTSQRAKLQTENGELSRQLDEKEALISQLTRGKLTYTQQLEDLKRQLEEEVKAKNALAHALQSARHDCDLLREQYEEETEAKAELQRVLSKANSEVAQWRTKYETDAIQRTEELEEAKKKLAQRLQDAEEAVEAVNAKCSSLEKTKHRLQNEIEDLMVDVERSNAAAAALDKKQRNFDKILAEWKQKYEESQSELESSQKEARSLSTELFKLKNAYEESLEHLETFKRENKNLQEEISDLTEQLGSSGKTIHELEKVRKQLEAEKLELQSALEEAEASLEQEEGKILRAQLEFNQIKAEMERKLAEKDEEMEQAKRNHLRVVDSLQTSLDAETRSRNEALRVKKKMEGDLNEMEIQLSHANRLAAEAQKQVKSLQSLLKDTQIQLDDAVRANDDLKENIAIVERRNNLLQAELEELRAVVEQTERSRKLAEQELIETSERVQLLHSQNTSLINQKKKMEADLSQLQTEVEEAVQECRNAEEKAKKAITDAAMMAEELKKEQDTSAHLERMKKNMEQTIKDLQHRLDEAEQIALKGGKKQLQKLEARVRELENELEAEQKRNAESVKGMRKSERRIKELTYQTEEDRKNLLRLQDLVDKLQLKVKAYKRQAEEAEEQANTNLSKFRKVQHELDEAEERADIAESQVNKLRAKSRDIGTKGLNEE
Sequence of bovine cardiac myofibrils (P85100 whole entry partner): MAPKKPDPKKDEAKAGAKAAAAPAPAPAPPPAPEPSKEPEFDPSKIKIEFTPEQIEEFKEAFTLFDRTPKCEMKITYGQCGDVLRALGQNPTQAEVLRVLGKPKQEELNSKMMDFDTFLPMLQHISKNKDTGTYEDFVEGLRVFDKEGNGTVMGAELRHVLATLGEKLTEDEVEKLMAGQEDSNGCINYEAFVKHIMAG
Sequence of bovine cardiac myofibrils (Q3SZE5 whole entry partner): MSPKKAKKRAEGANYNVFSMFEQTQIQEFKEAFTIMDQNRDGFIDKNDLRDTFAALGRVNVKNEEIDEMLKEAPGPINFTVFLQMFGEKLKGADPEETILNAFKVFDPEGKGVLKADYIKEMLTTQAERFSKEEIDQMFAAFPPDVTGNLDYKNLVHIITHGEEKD
Text: We used systems of increasing complexity ranging from the isolated cardiac myosin motor domains (Fig. 3a) to synthetic thick filaments formed from purified full-length bovine cardiac myosin (Fig. 3b) and bovine cardiac myofibrils as substrates in the chase assays (Fig. 3c). In contrast to the isolated myosin motors, synthetic thick filaments contain two myosin head domains per molecule connected via their coiled-coil tail.
Synthetic thick filaments were freshly prepared by diluting full-length bovine cardiac myosin stock into assay buffer (composition in mmol L^−1: 15 PIPES pH 7, 5 MgCl2, 1 DTT) and incubation on ice for 2 h. Bovine myosin S1 and synthetic thick filament concentrations were adjusted to 0.4 μmol L^−1 with assay buffer and 40 μL aliquoted into individual wells of a black 384-well plate (Greiner). Mant-ATP (JenaBioscience) was added to each well to a final concentration of 0.4 μmol L^−1 using an automated injector unit in a ClarioStar Plate Reader (BMG LabTech) and the system was allowed to age for 1 min. The chase phase was started by adding a final concentration of 2 mmol L^−1 ATP using a second automated injector unit. Fluorescence intensity from each well was constantly measured for 15 min every 1 sec at 25 °C with the following settings: excitation at 360 nm with a 20 nm bandwidth and emission at 450 nm with a 20 nm bandwidth. For experiments with cardiac myofibrils the concentration was adjusted to 1 mg m L^−1, and the mant-ATP and ATP concentrations were increased to 20 μmol L^−1 and 20 mmol L^−1, respectively.

Structure (SMILES): CCc1cc2c(=O)n(NC(=S)NC(C)C)cnc2s1 [F10]
effect on the rate of the fast phase: no effect
kfast [1]: 0.0552 ± 0.0106 s⁻¹
kfast [2]: 0.02031 s⁻¹ and 0.02851 s⁻¹ and 0.03852 s⁻¹ and 0.09761 s⁻¹ and 0.08409 s⁻¹ and 0.06218 s⁻¹
kslow [2]: 0.003333 s⁻¹ and 0.002949 s⁻¹ and 0.001064 s⁻¹ and 0.001853 s⁻¹ and 0.00204 s⁻¹ and 0.001557 s⁻¹
slow phase [2]: 72.63% and 66.55% and 67.45% and 65.69% and 56.45% and 78.18%
Bar graph (individual replicates): 72.63 and 66.55 and 67.45 and 65.69 and 56.45 and 78.18
Representative Traces (t [s] = 6): 0.8687
Representative Traces (t [s] = 7): 0.7649
Representative Traces (t [s] = 8): 0.847
Representative Traces (t [s] = 9): 0.7441
Representative Traces (t [s] = 10): 0.7291
Representative Traces (t [s] = 11): 0.7606
Representative Traces (t [s] = 12): 0.6903
Representative Traces (t [s] = 13): 0.6968
Representative Traces (t [s] = 14): 0.7384
Representative Traces (t [s] = 96): 0.4594
Representative Traces (t [s] = 97): 0.4902
Representative Traces (t [s] = 98): 0.4564
Representative Traces (t [s] = 99): 0.5227
Representative Traces (t [s] = 100): 0.5227
Representative Traces (t [s] = 101): 0.4329
Representative Traces (t [s] = 102): 0.4816
Representative Traces (t [s] = 103): 0.4496
Representative Traces (t [s] = 104): 0.4983
Representative Traces (t [s] = 105): 0.4303
Representative Traces (t [s] = 106): 0.4469
Representative Traces (t [s] = 107): 0.4441
Representative Traces (t [s] = 108): 0.454
Representative Traces (t [s] = 109): 0.4003
Representative Traces (t [s] = 110): 0.4314
Representative Traces (t [s] = 111): 0.4793
Representative Traces (t [s] = 112): 0.4152
Representative Traces (t [s] = 113): 0.4525
Representative Traces (t [s] = 114): 0.4165
Representative Traces (t [s] = 115): 0.4344
Representative Traces (t [s] = 116): 0.416
Representative Traces (t [s] = 117): 0.4849
Representative Traces (t [s] = 118): 0.4794
Representative Traces (t [s] = 119): 0.4668
Representative Traces (t [s] = 120): 0.4665
Representative Traces (t [s] = 121): 0.4689
Representative Traces (t [s] = 122): 0.4838
Representative Traces (t [s] = 123): 0.4652
Representative Traces (t [s] = 124): 0.4182
Representative Traces (t [s] = 125): 0.3966
Representative Traces (t [s] = 126): 0.4538
Representative Traces (t [s] = 127): 0.4517
Representative Traces (t [s] = 128): 0.4361
Representative Traces (t [s] = 129): 0.4908
Representative Traces (t [s] = 130): 0.4396
Representative Traces (t [s] = 131): 0.3944
Representative Traces (t [s] = 132): 0.397
Representative Traces (t [s] = 133): 0.4059
Representative Traces (t [s] = 134): 0.4164
Representative Traces (t [s] = 135): 0.475
Representative Traces (t [s] = 136): 0.486
Representative Traces (t [s] = 137): 0.4478
Representative Traces (t [s] = 138): 0.507
Representative Traces (t [s] = 139): 0.3865
Representative Traces (t [s] = 140): 0.4564
Representative Traces (t [s] = 141): 0.4199
Representative Traces (t [s] = 142): 0.4501
Representative Traces (t [s] = 143): 0.4218
Representative Traces (t [s] = 144): 0.4033
Representative Traces (t [s] = 145): 0.441
Representative Traces (t [s] = 146): 0.3827
Representative Traces (t [s] = 147): 0.3962
Representative Traces (t [s] = 148): 0.4486
Representative Traces (t [s] = 149): 0.4251
Representative Traces (t [s] = 150): 0.3547
Representative Traces (t [s] = 151): 0.4491
Representative Traces (t [s] = 152): 0.3776
Representative Traces (t [s] = 153): 0.3808
Representative Traces (t [s] = 154): 0.3286
Representative Traces (t [s] = 155): 0.4639
Representative Traces (t [s] = 156): 0.435
Representative Traces (t [s] = 157): 0.3725
Representative Traces (t [s] = 158): 0.3522
Representative Traces (t [s] = 159): 0.4127
Representative Traces (t [s] = 160): 0.3983
Representative Traces (t [s] = 161): 0.3945
Representative Traces (t [s] = 162): 0.3807
Representative Traces (t [s] = 163): 0.4372
Representative Traces (t [s] = 164): 0.4557
Representative Traces (t [s] = 165): 0.4341
Representative Traces (t [s] = 166): 0.3757
Representative Traces (t [s] = 167): 0.3677
Representative Traces (t [s] = 168): 0.4335
Representative Traces (t [s] = 169): 0.3827
Representative Traces (t [s] = 170): 0.3934
Representative Traces (t [s] = 171): 0.3476
Representative Traces (t [s] = 172): 0.3794
Representative Traces (t [s] = 173): 0.3525
Representative Traces (t [s] = 174): 0.3963
Representative Traces (t [s] = 175): 0.3642
Representative Traces (t [s] = 176): 0.3906
Representative Traces (t [s] = 177): 0.3677
Representative Traces (t [s] = 178): 0.392
Representative Traces (t [s] = 179): 0.4104
Representative Traces (t [s] = 180): 0.4065
Representative Traces (t [s] = 181): 0.4021
Representative Traces (t [s] = 182): 0.3788
Representative Traces (t [s] = 183): 0.3953
Representative Traces (t [s] = 184): 0.397
Representative Traces (t [s] = 185): 0.4128
Representative Traces (t [s] = 186): 0.3872

effect on the rate of the fast phase: no effect
kfast [1]: 0.0637 ± 0.0271 s⁻¹
Representative Traces (t [s] = 6): 0.8107
Representative Traces (t [s] = 7): 0.8334
Representative Traces (t [s] = 8): 0.8024
Representative Traces (t [s] = 9): 0.8319
Representative Traces (t [s] = 10): 0.793
Representative Traces (t [s] = 11): 0.7299
Representative Traces (t [s] = 12): 0.7382
Representative Traces (t [s] = 13): 0.7429
Representative Traces (t [s] = 14): 0.7007
Representative Traces (t [s] = 96): 0.4149
Representative Traces (t [s] = 97): 0.3828
Representative Traces (t [s] = 98): 0.3883
Representative Traces (t [s] = 99): 0.382
Representative Traces (t [s] = 100): 0.393
Representative Traces (t [s] = 101): 0.411
Representative Traces (t [s] = 102): 0.3936
Representative Traces (t [s] = 103): 0.355
Representative Traces (t [s] = 104): 0.403
Representative Traces (t [s] = 105): 0.3774
Representative Traces (t [s] = 106): 0.4119
Representative Traces (t [s] = 107): 0.4038
Representative Traces (t [s] = 108): 0.3884
Representative Traces (t [s] = 109): 0.3828
Representative Traces (t [s] = 110): 0.3991
Representative Traces (t [s] = 111): 0.3974
Representative Traces (t [s] = 112): 0.3704
Representative Traces (t [s] = 113): 0.3729
Representative Traces (t [s] = 114): 0.3757
Representative Traces (t [s] = 115): 0.3708
Representative Traces (t [s] = 116): 0.3829
Representative Traces (t [s] = 117): 0.3692
Representative Traces (t [s] = 118): 0.3929
Representative Traces (t [s] = 119): 0.3896
Representative Traces (t [s] = 120): 0.34
Representative Traces (t [s] = 121): 0.3562
Representative Traces (t [s] = 122): 0.3276
Representative Traces (t [s] = 123): 0.3379
Representative Traces (t [s] = 124): 0.3372
Representative Traces (t [s] = 125): 0.3385
Representative Traces (t [s] = 126): 0.3527
Representative Traces (t [s] = 127): 0.3498
Representative Traces (t [s] = 128): 0.3795
Representative Traces (t [s] = 129): 0.3503
Representative Traces (t [s] = 130): 0.3889
Representative Traces (t [s] = 131): 0.3403
Representative Traces (t [s] = 132): 0.3551
Representative Traces (t [s] = 133): 0.3408
Representative Traces (t [s] = 134): 0.3174
Representative Traces (t [s] = 135): 0.3637
Representative Traces (t [s] = 136): 0.3269
Representative Traces (t [s] = 137): 0.3446
Representative Traces (t [s] = 138): 0.322
Representative Traces (t [s] = 140): 0.3437
Representative Traces (t [s] = 141): 0.3145
Representative Traces (t [s] = 142): 0.3341
Representative Traces (t [s] = 143): 0.3342
Representative Traces (t [s] = 144): 0.3241
Representative Traces (t [s] = 145): 0.353
Representative Traces (t [s] = 146): 0.3167
Representative Traces (t [s] = 147): 0.3169
Representative Traces (t [s] = 150): 0.3343
Representative Traces (t [s] = 151): 0.3323
Representative Traces (t [s] = 152): 0.3258
Representative Traces (t [s] = 153): 0.3279
Representative Traces (t [s] = 154): 0.3292
Representative Traces (t [s] = 155): 0.3236
Representative Traces (t [s] = 156): 0.3153
Representative Traces (t [s] = 157): 0.312
Representative Traces (t [s] = 158): 0.3484
Representative Traces (t [s] = 159): 0.3282
Representative Traces (t [s] = 160): 0.2877
Representative Traces (t [s] = 161): 0.3298
Representative Traces (t [s] = 162): 0.3159
Representative Traces (t [s] = 164): 0.2984
Representative Traces (t [s] = 165): 0.3474
Representative Traces (t [s] = 166): 0.3344
Representative Traces (t [s] = 167): 0.3033
Representative Traces (t [s] = 168): 0.3319
Representative Traces (t [s] = 169): 0.3401
Representative Traces (t [s] = 170): 0.3298
Representative Traces (t [s] = 171): 0.3174
Representative Traces (t [s] = 172): 0.335
Representative Traces (t [s] = 173): 0.2879
Representative Traces (t [s] = 174): 0.2744
Representative Traces (t [s] = 175): 0.3144
Representative Traces (t [s] = 177): 0.3003
Representative Traces (t [s] = 180): 0.3087
Representative Traces (t [s] = 181): 0.2965
Representative Traces (t [s] = 182): 0.2814
Representative Traces (t [s] = 183): 0.3178
Representative Traces (t [s] = 184): 0.3078
Representative Traces (t [s] = 185): 0.2721
Representative Traces (t [s] = 186): 0.3115
Representative Traces (t [s] = 187): 0.2704
Representative Traces (t [s] = 188): 0.2836
Representative Traces (t [s] = 189): 0.2816
Representative Traces (t [s] = 190): 0.2901
Representative Traces (t [s] = 191): 0.3081
Representative Traces (t [s] = 192): 0.2598
Representative Traces (t [s] = 193): 0.2745
Structure (SMILES): CC(C)n1c(=O)cc(N[C@@H](C)c2ccccc2)[nH]c1=O [Mavacamten]
kfast [2]: 0.1448 s⁻¹ and 0.0188 s⁻¹ and 0.01818 s⁻¹ and 0.1128 s⁻¹ and 0.02375 s⁻¹
kslow [2]: 0.005449 s⁻¹ and 0.0002437 s⁻¹ and 0.001429 s⁻¹ and 0.00295 s⁻¹ and 0.003851 s⁻¹
slow phase [2]: 76.35% and 29.71% and 40.4% and 38.11% and 48.47%
Bar graph (individual replicates): 76.35 and 29.71 and 40.4 and 38.11 and 48.47
